Bounds are passed on as bounds.

As to `CC1CN(c2ncnc(CO)n2)CC(C)N1c1ncnc(-c2ccccc2)n1` (stereo not drawn) [Example 10, 1-{4-[4-(4-phenyl-[1,3,5]triazin-2-yl)-3R,5S-dimethyl-piperazin-1-yl]-[1,3,5]triazin-2-yl}-methanol], the melting point (commonly the temperature, or range, at which the solid turns liquid) was in the range of 206 to 207 °C.

`CC1CN(c2ncnc(CO)n2)CC(C)N1c1ncnc(CO)n1` (stereo not drawn) [Example 11, 1-{4-[4-(4-Hydroxymethyl-[1,3,5]triazin-2-yl)-3R,5S-dimethyl-piperazin-1-yl]-[1,3,5]triazin-2-yl}-methanol] registered a melting point of 224 to 225 °C. Turning to `COc1nc(C)nc(N2C(C)CN(c3ncnc(CO)n3)CC2C)n1` (stereo not drawn) [Example 12, 1-{4-[4-(4-methoxy-6-methyl-[1,3,5]triazin-2-yl)-3R,5S-dimethyl-piperazin-1-yl]-[1,3,5]triazin-2-yl}-methanol], the melting point fell in the range of 155 to 160 °C. `CC(O)c1ncnc(N2CC(C)N(c3nc(O)nc(-c4ccccc4)n3)C(C)C2)n1` (stereo not drawn) [Example 14, 1-{4-[4-(4-Hydroxy-6-phenyl-[1,3,5]triazin-2-yl)-3R,5S-dimethyl-piperazin-1-yl]-[1,3,5]triazin-2-yl}-ethanol]: the melting point is > 275 °C. In turn, `Cc1nc(O)nc(N2C(C)CN(c3ncnc(C(C)O)n3)CC2C)n1` (stereo not drawn) [Example 15, 1-{4-[4-(4-Hydroxy-3-methyl-[1,3,5]triazin-2-yl)-3R,5S-dimethyl-piperazin-1-yl]-[1,3,5]triazin-2-yl}-ethanol] gave a melting point of 263 to 265 °C. In the case of `CC1CN(c2ncnc(-c3ccccc3)n2)CC(C)N1c1ncnc(CO)n1` (stereo not drawn) [Example 16, 1-{4-[4-(4-Phenyl-[1,3,5]triazin-2-yl)-2R,6S-dimethyl-piperazin-1-yl]-[1,3,5]triazin-2-yl}-methanol], the melting point was in the range of 197 to 198 °C.
